Bridge positions count the residues as written; N and C are the ends. Square brackets hold non-standard residues; d marks the D form. Peptide text beside a SMILES is read from it. I, II: the chains in the order shown. * marks the point of attachment. DOTA = O=C(O)CN1CCN(CC(=O)O)CCN(CC(=O)*)CCN(CC(=O)O)CC1; Nle = CCCC[C@H](N)C(=O)O; Dap = NC[C@H](N)C(=O)O
Legend:
NPY Y1 receptor [1] = target: T1, NPY Y1 receptor (Homo sapiens, UniProt P25929); test: Receptor autoradiography competition binding (125I-hPYY) on SK-N-MC cell membrane pellet sections; settings: for IC50: SK-N-MC membrane pellets, 125I-hPYY displacement, mean ± SEM, n ≥ 3, read-out: Binding affinity Y1 (IC50); for Y1 binding affinity in words (displacement of 125I-hPYY): SK-N-MC cell membrane pellet sections
T1 construct: SK-N-MC cells endogenously expressing Y1; host or cells: SK-N-MC
T1 sequence (P25929 1-384): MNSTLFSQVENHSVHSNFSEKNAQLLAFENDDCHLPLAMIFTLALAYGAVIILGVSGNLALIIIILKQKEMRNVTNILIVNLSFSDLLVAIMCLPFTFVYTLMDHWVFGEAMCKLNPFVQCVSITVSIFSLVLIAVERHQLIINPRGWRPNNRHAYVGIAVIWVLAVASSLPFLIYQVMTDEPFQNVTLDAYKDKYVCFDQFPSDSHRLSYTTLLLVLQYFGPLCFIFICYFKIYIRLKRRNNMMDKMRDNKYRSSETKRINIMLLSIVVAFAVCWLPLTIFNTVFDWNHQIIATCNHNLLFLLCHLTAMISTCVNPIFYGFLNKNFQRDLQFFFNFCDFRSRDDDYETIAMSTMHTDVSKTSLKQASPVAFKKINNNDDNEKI
Experimental: (§1) The neuroepithelioma cell line SK-N-MC endogenously expressing the NPY Y1 receptor was obtained from ATCC (HTB-10; LGC Standards, Teddington, Middlesex, UK) and cultured at 37°C and 5% CO2 in MEM with GlutaMax I and supplemented with 10% FBS, 100 U/ml penicillin and 100 μg/ml streptomycin, 1 mM MEM sodium pyruvate, and MEM non-essential amino acids (× 1). The neuroblastoma cell line SH-SY5Y endogenously expressing the NPY Y2 receptor, kindly provided by Dr. Paolo Paganetti (Novartis, Basel, Switzerland), was cultured at 37°C and 5% CO2 in MEM/Ham's F12 with GlutaMax I and supplemented with 10% FBS, 100 U/ml penicillin and 100 μg/ml streptomycin, 1 mM MEM sodium pyruvate, and MEM non-essential amino acids (× 1). All culture reagents were from Gibco BRL, Life Technologies, (Grand Island, NY, USA).
(§2) Binding affinities of the compounds were assessed using sections of cell membrane pellets of SK-N-MC for Y1 or SH-SY5Y for Y2, as described before. Briefly, membrane pellets were prepared and stored at -80°C, and receptor autoradiography was performed on 20-μm-thick cryostat (Microm HM 500, Walldorf, Germany) sections of the membrane pellets, mounted on microscope slides and stored at -20°C as previously described for other cell lines and receptors. The slides were preincubated in Krebs-Ringer solution (NaCl 119 mM, KCl 3.2 mM, KH2PO4 1.19 mM, MgSO4 1.19 mM, NaHCO3 25 mM, CaCl2 2.53 mM, D-glucose 10 mM; pH 7.4) for 60 min at room temperature. Then, they were incubated for 120 min in the incubation solution containing the Krebs-Ringer solution, 0.1% BSA, 0.05% bacitracin, and 10,000 cpm/100 μl of the ^125I-labeled human PYY (hPYY; 2,000 Ci/mmol; Anawa, Wangen, Switzerland). Membrane pellet sections were incubated with ^125I-hPYY in increasing concentrations ranging from 0.1 nM up to 1,000 nM of non-labeled hPYY, as control, or with the compounds to be tested. After the incubation, the slides were washed two times for 5 min and then rinsed four times in ice-cold preincubation solution. After drying, the slides were exposed to Kodak films Biomax MR® for 7 days. IC50 values were calculated after quantification of the data using a computer-assisted image processing system (Analysis Imaging System, Interfocus, Mering, Germany). Tissue standards (autoradiographic [^125I] and/or [^14C] microscales, GE Healthcare, Little Chalfont, UK) containing a known amount of isotope, cross-calibrated to tissue-equivalent ligand concentrations were used for quantification.

NPY Y2 receptor = target: T2, NPY Y2 receptor (Homo sapiens, UniProt P49146); test: Receptor autoradiography competition binding (125I-hPYY) on SH-SY5Y cell membrane pellet sections; settings: SH-SY5Y membrane pellets, 125I-hPYY displacement; n ≥ 3; read-out: Binding affinity Y2 (IC50)
T2 construct: SH-SY5Y cells endogenously expressing Y2; endogenous in cells; host or cells: SH-SY5Y
T2 sequence (P49146 1-381): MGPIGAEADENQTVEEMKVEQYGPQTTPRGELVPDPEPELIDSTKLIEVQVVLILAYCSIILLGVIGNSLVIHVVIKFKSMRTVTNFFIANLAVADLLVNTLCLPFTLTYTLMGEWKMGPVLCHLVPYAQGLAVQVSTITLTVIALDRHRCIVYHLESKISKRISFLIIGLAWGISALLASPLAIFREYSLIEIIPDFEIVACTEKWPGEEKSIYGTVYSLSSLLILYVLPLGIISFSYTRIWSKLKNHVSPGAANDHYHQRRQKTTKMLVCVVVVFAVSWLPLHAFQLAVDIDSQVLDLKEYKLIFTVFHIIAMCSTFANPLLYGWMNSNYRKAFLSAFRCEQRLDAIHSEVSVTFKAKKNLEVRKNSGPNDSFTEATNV
Experimental: as §1, §2

NPY Y1 receptor [2] = target: T1, NPY Y1 receptor; test: Forskolin-stimulated adenylate cyclase activity (cAMP flashplate assay) in SK-N-MC cells; type: cell-based; settings: 10 μM forskolin; for Functional assay cAMP for Y1: analog 20 μM alone or with 100 nM [Leu31,Pro34]-hPYY
Experimental: Adenylate cyclase activity was determined in SK-N-MC cells using the adenylate cyclase activation flashplate assay (SMP004) from PerkinElmer (Waltham, MA, USA). SK-N-MC cells were seeded in 96-well culture plates at 25,000 cells/well and cultured for 48 h at 37°C and 5% CO2. Culture medium was then removed from the wells and fresh medium (100 μL) containing 0.5 mM 3-isobutyl-1-methylxanthine (IBMX) was added to each well. Cells were incubated for 30 min at 37°C. Medium was then removed and replaced with fresh medium containing 0.5 mM IBMX, with or without 10 μM forskolin and various concentrations of the peptides to be analyzed. Cells were incubated for 30 min at 37°C. After removal of the medium, cells were lysed and cAMP accumulation was determined using the SMP004 kit from PerkinElmer according to the instructions of the manufacturers.
Figure 4 Effect of various Y1 affine analogs on forskolin-stimulated intracellular cAMP accumulation in SK-N-MC cells. Cells were incubated for 30 min with 10 μM forskolin either alone, or with 10 μM forskolin in the presence of 20 μM or 100 nM of the reference compound [Leu^31, Pro^34]-PYY (LP-PYY), or with 10 μM forskolin in the presence of the various Y1 affine analogs either alone at a concentration of 20 μM or at a concentration of 20 μM in the presence of 100 nM LP-PYY. Intracellular cAMP accumulation was then determined as described in Methods. Results are shown as percentage of the 10 μM forskolin effect on intracellular cAMP accumulation.
Cells were incubated for 30 min with 10 μM forskolin in the presence of [Leu^31, Pro^34]-PYY (LP-PYY) at concentrations ranging between 0.01 nM and 20 μM alone (solid circle) or with 10 μM forskolin in the presence of LP-PYY at concentrations ranging between 0.01 nM and 20 μM supplemented with a fixed concentration of 20 μM of the analog 11 (solid square). […] Compound 11 given alone at a concentration of 20 μM has no effect on the accumulation of forskolin-stimulated cAMP (solid triangle).

Y5 = tested on: Y5; design: method as in PMID 12182951; settings: rats, in vivo; cited from earlier work

Molecule | IC50 (NPY Y1 receptor [1]) [nM] | IC50 (NPY Y2 receptor) [nM] | Functional assay cAMP for Y1 (NPY Y1 receptor [2]) | Y1 binding affinity in words (displacement of 125I-hPYY) (NPY Y1 receptor [1]) | further results
CCCC[C@H](NC(=O)[C@H](CCCNC(=N)N)NC(=O)[C@H](Cc1c[nH]c2ccccc12)NC(=O)[C@H](CSSC[C@H](NC(=O)[C@@H]1CCCN1C(=O)[C@H](CC(N)=O)NC(=O)[C@@H](N)[C@@H](C)CC)C(=O)N[C@@H](Cc1c[nH]c2ccccc12)C(=O)N[C@@H](CCCNC(=N)N)C(=O)N[C@@H](CCCC)C(=O)N[C@@H](CCCNC(=N)N)C(=O)N[C@@H](Cc1ccc(O)cc1)C(N)=O)NC(=O)[C@@H]1CCCN1C(=O)[C@H](CNC(=O)CN1CCN(CC(=O)O)CCN(CC(=O)O)CCN(CC(=O)O)CC1)NC(=O)[C@@H](N)[C@@H](C)CC)C(=O)N[C@@H](CCCNC(=N)N)C(=O)N[C@@H](Cc1ccc(O)cc1)C(N)=O [Analog 8] (I: H-I[Dap](DOTA)PCWR[Nle]RY-NH2 / II: H-INPCWR[Nle]RY-NH2; disulfide I:4-II:4) | 29 ± 7 | > 1000 | – | – | –
Bis(31/31')[Cys^31, Nva^34]NPY(27-36)-NH2 | – | – | – | – | Stimulation of food intake (Y5): able to stimulate in vivo the food intake in rats
[Leu^31, Pro^34]-hPYY [reference compound] | – | – | – | – | Inhibition of forskolin-stimulated cAMP accumulation by agonist (NPY Y1 receptor [2]; agonist at 20 μM and 100 nM): efficiently inhibited forskolin-stimulated cAMP accumulation

The next lines start with results.

IC50 (NPY Y1 receptor [1]) [nM] | IC50 (NPY Y2 receptor) [nM] | Functional assay cAMP for Y1 (NPY Y1 receptor [2]) | Molecule | Y1 binding affinity in words (displacement of 125I-hPYY) (NPY Y1 receptor [1]) | further results
127 ± 50 | > 1000 | – | CCCC[C@H](NC(=O)[C@H](CCCNC(=N)N)NC(=O)[C@H](Cc1c[nH]c2ccccc12)NC(=O)[C@H](CSSC[C@H](NC(=O)[C@@H]1CCCN1C(=O)[C@H](CCCCN)NC(=O)[C@@H](N)[C@@H](C)CC)C(=O)N[C@@H](Cc1c[nH]c2ccccc12)C(=O)N[C@@H](CCCNC(=N)N)C(=O)N[C@@H](CCCC)C(=O)N[C@@H](CCCNC(=N)N)C(=O)N[C@@H](Cc1ccc(O)cc1)C(N)=O)NC(=O)[C@@H]1CCCN1C(=O)[C@H](CCCCN)NC(=O)[C@@H](N)[C@@H](C)CC)C(=O)N[C@@H](CCCNC(=N)N)C(=O)N[C@@H](Cc1ccc(O)cc1)C(N)=O [Analog 9] (I: H-IKPCWR[Nle]RY-NH2 / II: H-IKPCWR[Nle]RY-NH2; disulfide I:4-II:4) | – | –
283 ± 52 | > 1000 | Antagonist | CCCC[C@H](NC(=O)[C@H](CCCNC(=N)N)NC(=O)[C@H](Cc1c[nH]c2ccccc12)NC(=O)[C@H](CSSC[C@H](NC(=O)[C@@H]1CCCN1C(=O)[C@H](CCCCNC(=O)CN1CCN(CC(=O)O)CCN(CC(=O)O)CCN(CC(=O)O)CC1)NC(=O)[C@@H](N)[C@@H](C)CC)C(=O)N[C@@H](Cc1c[nH]c2ccccc12)C(=O)N[C@@H](CCCNC(=N)N)C(=O)N[C@@H](CCCC)C(=O)N[C@@H](CCCNC(=N)N)C(=O)N[C@@H](Cc1ccc(O)cc1)C(N)=O)NC(=O)[C@@H]1CCCN1C(=O)[C@H](CCCCNC(=O)CN1CCN(CC(=O)O)CCN(CC(=O)O)CCN(CC(=O)O)CC1)NC(=O)[C@@H](N)[C@@H](C)CC)C(=O)N[C@@H](CCCNC(=N)N)C(=O)N[C@@H](Cc1ccc(O)cc1)C(N)=O [Analog 10] (I: H-IK(DOTA)PCWR[Nle]RY-NH2 / II: H-IK(DOTA)PCWR[Nle]RY-NH2; disulfide I:4-II:4) | lower affinity displacements of ^125I-hPYY | –
13 ± 3 | > 1000 | Antagonist | CCCC[C@H](NC(=O)[C@H](CCCNC(=N)N)NC(=O)[C@H](Cc1c[nH]c2ccccc12)NC(=O)[C@H](CSSC[C@H](NC(=O)[C@@H]1CCCN1C(=O)[C@H](CC(N)=O)NC(=O)[C@@H](N)[C@@H](C)CC)C(=O)N[C@@H](Cc1c[nH]c2ccccc12)C(=O)N[C@@H](CCCNC(=N)N)C(=O)N[C@@H](CCCC)C(=O)N[C@@H](CCCNC(=N)N)C(=O)N[C@@H](Cc1ccc(O)cc1)C(N)=O)NC(=O)[C@@H]1CCCN1C(=O)[C@H](CCCCNC(=O)CN1CCN(CC(=O)O)CCN(CC(=O)O)CCN(CC(=O)O)CC1)NC(=O)[C@@H](N)[C@@H](C)CC)C(=O)N[C@@H](CCCNC(=N)N)C(=O)N[C@@H](Cc1ccc(O)cc1)C(N)=O [Analog 11] (I: H-IK(DOTA)PCWR[Nle]RY-NH2 / II: H-INPCWR[Nle]RY-NH2; disulfide I:4-II:4) | high-affinity displacements of ^125I-hPYY | Shift of the dose response curve of [Leu31,Pro34]-hPYY to the right (NPY Y1 receptor [2]; 20 μM analog with increasing concentration of [Leu31,Pro34]-hPYY up to 20 μM): at least three orders of magnitude; Inhibition of forskolin-stimulated cAMP accumulation, analog given alone (NPY Y1 receptor [2]; analog alone at 20 μM): has no effect

From paper PMC3250963, “Novel dimeric DOTA-coupled peptidic Y1-receptor antagonists for targeting of neuropeptide Y receptor-expressing cancers” (EJNMMI Research, 2011)
